Conditions: Liquid; for viscosity: Capillary tube (Ostwald / Ubbelohde) method; for mass density: isochoric method

CCCCCCC [heptane]
Conditions	mass density [kg/m3]	viscosity [mPa·s]
298.24 K, 100 kPa	–	0.388
302.46 K, 100 kPa	675.91	–
306.79 K, 5000 kPa	–	0.3779
306.79 K, 10000 kPa	–	0.4013
307.61 K, 4760 kPa	676.1	–
307.61 K, 11941 kPa	683.2	–
314.57 K, 100 kPa	665.62	–
323.93 K, 100 kPa	–	0.2979
329.71 K, 100 kPa	652.43	–
337.54 K, 5000 kPa	–	0.28
337.54 K, 10000 kPa	–	0.2978
342.94 K, 100 kPa	640.61	–
348.64 K, 100 kPa	–	0.2354
353.76 K, 100 kPa	630.86	–
369.35 K, 5000 kPa	–	0.2116
369.35 K, 10000 kPa	–	0.2259
387 K, 5783 kPa	610	–
387 K, 12460 kPa	620.7	–
407.85 K, 5000 kPa	–	0.1595
407.85 K, 10000 kPa	–	0.1718
449.64 K, 5000 kPa	–	0.122
449.64 K, 10000 kPa	–	0.1338
450.12 K, 4350 kPa	543.7	–
450.12 K, 11492 kPa	564.4	–
473.54 K, 5000 kPa	–	0.1012
473.54 K, 10000 kPa	–	0.113
500.47 K, 6791 kPa	492.7	–
500.47 K, 10720 kPa	512.8	–

CCCCCCCC [octane]
Conditions	mass density [kg/m3]	viscosity [mPa·s]
298.24 K, 100 kPa	–	0.508
301.84 K, 100 kPa	695.24	–
308.72 K, 5000 kPa	–	0.4786
308.72 K, 10000 kPa	–	0.5043
311.89 K, 4680 kPa	691.6	–
311.89 K, 10642 kPa	697.4	–
316.49 K, 100 kPa	683.55	–
323.93 K, 100 kPa	–	0.3829
329.76 K, 100 kPa	672.69	–
340.94 K, 100 kPa	663.24	–
348.64 K, 100 kPa	–	0.3034
349.46 K, 5000 kPa	–	0.3187
349.46 K, 10000 kPa	–	0.3364
358.76 K, 100 kPa	648.1	–
367.61 K, 5873 kPa	648.8	–
367.61 K, 11461 kPa	656.2	–
394.81 K, 5000 kPa	–	0.2197
394.81 K, 10000 kPa	–	0.2334
436.86 K, 5000 kPa	–	0.1672
436.86 K, 10000 kPa	–	0.1799
437.97 K, 6430 kPa	589.6	–
437.97 K, 11084 kPa	599.5	–
467.46 K, 5000 kPa	–	0.1338
467.46 K, 10000 kPa	–	0.1458
516.64 K, 5712 kPa	505.4	–
516.64 K, 9791 kPa	525.2	–

Reference: the NIST ThermoML archive (doi:10.1016/j.jct.2006.01.012)
